Measured values published in patent US9701689B2, “Substituted pyridines and pyridazines as CCR10 receptor inhibitors” (KYOWA HAKKO KIRIN CO., LTD., priority 2012, dated 2017).

Experiments:
[1] = system: Dinitrofluorobenzene-induced Auricle Edema Reaction in Mouse; assay: Suppressive action on dinitrofluorobenzene-induced auricle edema reaction in mouse; type: in vivo; details: BALB/c mice; for suppressive action on auricle edema response (in words): topical application in acetone, summary of Table 28; for inhibition in vivo at 1 %: Mus musculus, topical, test compound concentration 1% (w/v) in acetone, applied to auricle 1 hr before and 3 hr after induction, measured 24 hr after induction, read-out: auricle edema suppression rate (%)
Procedure: [Experimental Example 2] Suppressive Action on Dinitrofluorobenzene-induced Auricle Edema Reaction in Mouse
BALB/c mice (female, supplied by CHARLES RIVER LABORATORIES JAPAN, INC.) were purchased at the age of 5 weeks. After quarantine and acclimation, mice showing smooth body weight increase and free of abnormality in appearance were used and the test was started at the age of 7 weeks. The mice were housed in a breeding room at room temperature 19-25° C., humidity 30-70%, 12 hr lighting per day (7 a.m.-7 p.m.) with 3 mice in each plastic gauge, and bred on with free ingestion of a commercially available solid feed and water.
Two days before the test, the abdomen of the BALB/c mice was shaved, and the mice were immunized by applying 100 μL of a solution {concentration 0.5% [weight (w)/volume (v) %]} of dinitrofluorobenzene (manufactured by Nacalai Tesque) in acetone (manufactured by Wako Pure Chemical Industries, Ltd.) to the shaved part. The reaction was induced by applying dinitrofluorobenzene-acetone solution [concentration 0.2% (w/v %)] to the front and the back of auricle (10 μL to each, total 20 μL) on day 5 after the immunization. A test compound dissolved in acetone at concentration of 0.1% or 1% (w/v %) was administered by applying same to the front and the back of auricle (10 μL to each, total 20 μL) 1 hr before and 3 hr after induction of the reaction. After application, the applied part was air-dried with a dryer.
The group applying administered with the test compound was taken as a test compound administration group, and the group applying administered with acetone as a solvent instead of the test compound was taken as a solvent administration group. Also, the group free of immunization and reaction induction but applying administered with acetone instead of the test compound was taken as a normal group. The thickness of auricle was measured using a dial thickness gauge (G-1A manufactured by OZAKI MFG. CO., LTD.) immediately before and 24 hr after induction of the reaction, and the difference thereof was taken as auricle edema. The suppression rate (%) of auricle edema was calculated according to the following formula.

[2] = molecular target: T1, human CCR10 (Homo sapiens, UniProt P46092); assay: CCR10 antagonistic effect: calcium assay of human CCR10 (CTACK-induced increase of intracellular calcium in hCCR10G16 cells); type: cell-based; details: at a concentration of not more than 1000 nmol/L; human CCR10-expressing hCCR10G16 cells, 300 nmol/L CTACK added; read-out: inhibition of increase in the calcium ion concentration
T1 construct: expressed in transfected cells; host or cells: KJMGER8 cells (Namalwa cell-derived line), beta-estradiol-induced; hCCR10G16 cells
T1 sequence (P46092 1-362): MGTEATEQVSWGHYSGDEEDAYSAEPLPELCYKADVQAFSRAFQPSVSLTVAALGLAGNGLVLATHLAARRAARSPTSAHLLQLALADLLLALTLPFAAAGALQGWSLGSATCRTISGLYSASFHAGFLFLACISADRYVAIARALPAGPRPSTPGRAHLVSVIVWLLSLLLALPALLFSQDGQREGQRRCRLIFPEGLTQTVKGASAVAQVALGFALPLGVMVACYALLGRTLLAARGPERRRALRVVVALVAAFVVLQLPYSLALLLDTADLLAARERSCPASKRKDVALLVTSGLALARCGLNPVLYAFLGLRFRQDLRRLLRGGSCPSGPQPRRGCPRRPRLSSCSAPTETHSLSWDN
In short: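 Inhibition of CTACK-evoked calcium flux (max minus min Fluo-3 fluorescence over ~5 min, FDSS) was calculated against control in β-estradiol-induced human CCR10/Gα16 KJMGER8 cells, after 30 min compound preincubation at 37 °C; CTACK added from a 300 nmol/L solution.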

inhibition at up to 1 µM [2] | SMILES | suppressive action on auricle edema response (in words) [1] | inhibition in vivo at 1 % [1]
≥ 50% | Cc1cc(NS(=O)(=O)c2ncc(C(=O)N3CCC(c4ccc(F)cc4)CC3)c(Nc3ccccc3C)c2C)sn1 [Compound 241, 5-[4-(4-fluorophenyl)piperidine-1-carbonyl]-3-methyl-N-(3-methylisothiazol-5-yl)-4-(o-tolylamino)pyridine-2-sulfonamide] | showed a suppressive action on auricle edema response | 27%
≥ 50% | Cc1c(S(=O)(=O)Nc2ccon2)ncc(C(=O)N2CCC(c3ccc(F)cc3)CC2)c1Nc1ccc(Cl)cc1 [Compound 259, 4-(4-chlorophenylamino)-5-[4-(4-fluorophenyl)piperidine-1-carbonyl]-N-(isoxazol-3-yl)-3-methylpyridine-2-sulfonamide] | showed a suppressive action on auricle edema response | 38%
≥ 50% | NS(=O)(=O)c1ncc(C(=O)N2CCC(c3ccc(F)cc3)CC2)c(Nc2ccc(C(F)(F)F)cc2)c1Cl [Compound 291, 3-chloro-5-[4-(4-fluorophenyl)piperidine-1-carbonyl]-4-[4-(trifluoromethyl)phenylamino]pyridine-2-sulfonamide] | showed a suppressive action on auricle edema response | 35%
